{"source": "patent US4642332A", "about": "“Effective hormonal peptides: D-3-Pal^6 -LHRH” (The Board of Regents, The University of Texas System, priority 1985, dated 1987)", "key": {"[1]": {"test_system": "pituitary cells from 21 day old rats", "assay": "In vitro pituitary incubate assay (release of LH and FSH)", "assay_type": "cell-based, rat", "conditions": "for FSH ng/ml medium ± SEM / LH ng/ml medium ± SEM: Table V, mean of 9", "method": "The data in Tables IV and V are from the in vitro assay of the peptides with the pituitary incubate. This assay measures the release of LH and FSH in an in vitro system with pituitary cells from 21 day old rats. See, Bowers, C. Y. et al. on the inhibitory effects of leutinizing hormone releasing hormone analogs. Endocrinology, 106: 674 (1980).\nThe abbreviations are as follows: sc-subcutaneous, SEM-standard error of the mean; NS-not significant; ng-nanogram, and ml-milliliter. The p value represents the population coefficient .rho.(rho) which signifies whether a sample coefficient is significant or a chance deviation from zero."}, "21 day old female rats": {"test_system": "21 day old female rats", "assay": "In vivo assay in rats for release of LH and FSH", "design": "species or system rat", "method": "In vivo rat assay performed by a modification of the method of Bowers, C. Y. et al. Endocrinology, 106, 674 (1980). 21 day old female rats were injected sc with saline or peptide. Blood samples for the RIAs of LH and FSH were collected at +15, +60, +120, or +180 minutes. (Tables VI-XI)."}, "men": {"test_system": "men", "conditions": "in men, after chronic administration; cited from earlier work"}, "[2]": {"test_system": "advanced prostatic carcinoma", "design": "clinical effect in patients with urinary obstruction: dose or concentration left out as unconfirmed", "conditions": "subcutaneously, cited from earlier work"}, "[3]": {"conditions": "Table XI, 150 ng sc, +2 hrs, mean 5-6"}, "[4]": {"conditions": "Table XI, 150 ng sc, +3 hrs, mean 5-6"}}}
{"smiles": "CC(C)C[C@H](NC(=O)[C@@H](Cc1c[nH]c2ccccc12)NC(=O)[C@H](Cc1ccc(O)cc1)NC(=O)[C@H](CO)NC(=O)[C@H](Cc1c[nH]c2ccccc12)NC(=O)[C@H](Cc1c[nH]cn1)NC(=O)[C@@H]1CCC(=O)N1)C(=O)N[C@@H](CCCNC(=N)N)C(=O)N1CCC[C@H]1C(=O)NCC(N)=O", "note": "[D-Trp^6 -LHRH, pyroGlu--His--Trp--Ser--Tyr--D-Trp--Leu--Arg--Pro--Gly--NH2]", "values": [{"measurement": "FSH ng/ml medium ± SEM", "setting": "[1]; dosage .01 ng/ml medium", "result": "450 ± 64", "unit": "ng/mL"}, {"measurement": "LH ng/ml medium ± SEM", "setting": "[1]; dosage .01 ng/ml medium", "result": "68 ± 31", "unit": "ng/mL"}, {"measurement": "FSH ng/ml medium ± SEM", "setting": "[1]; dosage .03 ng/ml medium", "result": "929 ± 207", "unit": "ng/mL"}, {"measurement": "LH ng/ml medium ± SEM", "setting": "[1]; dosage .03 ng/ml medium", "result": "209 ± 74", "unit": "ng/mL"}, {"measurement": "FSH ng/ml medium ± SEM", "setting": "[1]; dosage .10 ng/ml medium", "result": "1714 ± 224", "unit": "ng/mL"}, {"measurement": "LH ng/ml medium ± SEM", "setting": "[1]; dosage .10 ng/ml medium", "result": "646 ± 69", "unit": "ng/mL"}, {"measurement": "potency, D-Qal^6 -LHRH compared with D-Trp^6 -LHRH", "setting": "[1]; comparable assays, statement in words", "result": "essentially equipotent"}, {"measurement": "LH ng/ml Serum ± SEM ± 60 min", "setting": "21 day old female rats; Table VII, dosage 10 mg/rat sc (so in the source)", "result": "31 ± 6", "unit": "ng/mL"}, {"measurement": "LH ng/ml Serum ± SEM ± 15 min", "setting": "21 day old female rats; Table VII, dosage 100 mg/rat sc (so in the source), ± 15 min", "result": "51 ± 10", "unit": "ng/mL"}, {"measurement": "LH ng/ml Serum ± SEM ± 60 min", "setting": "21 day old female rats; Table VII, dosage 100 mg/rat sc (so in the source)", "result": "259 ± 34", "unit": "ng/mL"}, {"measurement": "+2 hrs LH ± SEM ng/ml serum", "setting": "21 day old female rats; [3]", "result": "230 ± 41", "unit": "ng/mL"}, {"measurement": "FSH ± SEM ng/ml serum (+2 hrs)", "setting": "21 day old female rats; [3]", "result": "2332 ± 388", "unit": "ng/mL"}, {"measurement": "+3 hrs LH ± SEM ng/ml serum", "setting": "21 day old female rats; [4]", "result": "117 ± 9", "unit": "ng/mL"}, {"measurement": "FSH ± SEM ng/ml serum (+3 hrs)", "setting": "21 day old female rats; [4]", "result": "2065 ± 151", "unit": "ng/mL"}, {"measurement": "Leydig cell function", "setting": "men", "result": "suppression of Leydig cell function"}, {"measurement": "serum levels of testosterone, dihydrotestosterone and estradiol", "setting": "men", "result": "decreases"}, {"measurement": "clinical effect in patients with urinary obstruction", "setting": "[2]; daily doses (so in the source)", "result": "noticeable clinical improvement"}, {"measurement": "pain from bone metastases in patients with more advanced prostatic disease", "setting": "[2]; daily doses of 100 g and 50 g, respectively (so in the source)", "result": "relieved"}]}
